Data reported in a melting point compilation (Tetko et al.; mined from patent text by program, amines drawn as free bases though some values may be those of a salt).

Point of comparison: `COc1ccc2nc(-c3ccccc3)cc(C(=O)Nc3ccc(CCCCN(C)Cc4ccc(OC)c(OC)c4)cc3)c2c1`, melting point 148 °C. Against it:
- CC(=O)Nc1c(N(C)C)cnn(-c2ccccc2)c1=O — higher, 186 to 187 °C
- CCc1c(Oc2cnc(N)nc2N)cc(Br)c2c1OCCO2 — higher, 291 to 293 °C
- Oc1ccc(Cc2ccc(OCC(O)CCc3cccnc3)cc2)cc1 (stereo not drawn) — lower, 98 to 99 °C
- CCCCCCCCCCCCSc1ccc2c(c1)C(=O)c1c(c(Oc3ccccc3)c3ccccc3c1Oc1ccccc1)C2=O — higher, 165 to 168 °C
- CCC(=O)Nc1ccc(-c2ccncc2)cc1 — higher, 179 to 181 °C
- N[C@@H](Cc1ccc(F)cc1)[C@H](O)c1ccc(F)cc1 (racemic) — lower, 66 to 67 °C
- COc1cc2c(cc1OC)N(C)C(=O)CN=C2c1cncc2ccccc12 — lower, 131 to 135 °C
- Cc1cc(Oc2ccc(-c3ccn(CC4CC4)c(=O)c3C(F)(F)F)cc2F)cc(C)n1 — higher, 162 °C
- Cc1ccc(N2C(=O)C(O)=C(C(=O)c3ccc(C(C)C)cc3)C2c2ccc(OC(F)(F)F)cc2)cn1 (stereo not drawn) — higher, 214 to 218 °C
- O=C1c2ccc(OS(=O)(=O)C(F)(F)F)cc2CCC1Cc1ccccc1 (stereo not drawn) — lower, 52 to 53.7 °C
- C=CCNc1nc(NCc2ccccc2)c2cc([N+](=O)[O-])ccc2n1 — higher, 235 to 236 °C
- NS(=O)(=O)C=Cc1ccc(Cl)c(Cl)c1 — lower, 127 to 130 °C
- Cc1nc(N2CCN(Cc3ccc(C(F)(F)F)cc3)C2=O)sc1-c1cnco1 — higher, 160 to 162 °C
- C=C(C)C(=O)Nc1cccc(OC(=O)Nc2cccc3ccccc23)c1 — higher, 195 to 196 °C
- O=C(NCCO)c1cccc(-c2ccc3ccn(-c4ccc(Cl)cc4Cl)c3n2)c1 — higher, 159 to 160 °C
- Cn1cc(C2=C(c3c4n(c5ccccc35)CCC(CNC=O)C4)C(=O)NC2=O)c2ccccc21 (stereo not drawn) — higher, 332 to 334 °C
- CSc1nc(N)cc(OCCOCP(=O)(O)O)n1 — higher, 210 to 211 °C
- CN(C)C=C(C=O)c1ccccc1Cl — lower, 86.5 to 88.5 °C
- CC(=O)O[C@H]1CC[C@H](c2ccc(CCl)cc2)CC1 — lower, 87 to 89 °C
- Cc1csc(C(=O)c2[nH]c3cc(Cl)ccc3c2CC(=O)O)n1 — higher, 239 to 240 °C
- COc1ccc(C(=O)c2ccccc2)c(O)c1Cc1cc(C)cc(-n2nc3ccccc3n2)c1O — higher, 206 to 209 °C
- CNC(=O)n1cc2c(n1)-c1ccc(Cl)cc1C(c1ccccc1F)=NC2 — higher, 192 to 193 °C
- Cc1ccn(-c2ccc(C(=O)N3Cc4ccc(CN(C)C)n4Cc4ccccc43)c(Cl)c2)n1 — lower, 100 to 102 °C
- CC[C@H](C)C(OCc1ccccc1)[C@@H]1[C@H]([N+](=O)[O-])[C@H](c2ccccc2)N(C(=O)CN)[C@]1(C)C(=O)NCCC(=O)O (stereo partly drawn) — lower, 116 °C
- CC(C)Cn1c(=O)n(C)c(=O)c2c(Br)c(C(O)c3cccnc3)sc21 (stereo not drawn) — lower, 132 °C
- COc1cc(OCC(=O)O)c(C)cc1SCc1cccc(-c2cccc(OC(F)(F)F)c2)c1 — lower, 92 to 94 °C
- NC(=O)n1nc(-c2ccccc2)cc1N — higher, 255 °C
- Cc1ccccc1Cn1cc(-c2cn(C3CC(O)C(CO)O3)c(=O)[nH]c2=O)nn1 (stereo not drawn) — higher, 168 to 170 °C
- Cc1ccc2c(Sc3ccc(Cl)c(Cl)c3)c(C(=O)O)[nH]c2c1 — higher, 252 to 255 °C
- CC(C)OC(=O)C(C)Oc1ncn(-c2ccccc2)n1 (stereo not drawn) — lower, 104 °C
- CC(O)c1cccc(Cl)c1Cl (stereo not drawn) — lower, 53 °C
- CCCOc1ccc(-c2nc3n(c2-c2ccncc2)CCC3)cc1 — not separable, 148 to 150 °C
- CC(C)CC(=O)Nc1c(C(=O)c2cc(CO)co2)[nH]c2cc(Cl)ccc12 — higher, 200 to 201 °C
- CC(C)(C)OC(=O)N1C[C@@H](F)C[C@H]1C(=O)O — higher, 158 to 159 °C
- CC(C)c1ccc(-n2nc(Cl)cc2-c2ccc(S(C)(=O)=O)cc2)cc1 — not separable, 146 to 148 °C
- FC(F)(F)CSc1nc(-c2ccccc2)c(-c2ccccc2)[nH]1 — higher, 186 to 187 °C
- CCOC(=O)CCc1cccc2c1Sc1cc(C#N)ccc1CC2 — lower, 61 to 62 °C
- CON(c1ccc([N+](=O)[O-])cc1[N+](=O)[O-])S(=O)(=O)c1cccc(Cl)c1 — higher, 157 to 159 °C
- c1c(C2CC2)n[nH]c1C1CC1 — higher, 161 to 164 °C
- COC(=O)c1ccc(NC(=O)C(=O)c2ccc3c(c2)C(C)(C)CCC3(C)C)cc1O — lower, 146 to 147 °C
- CCOC(=O)N1CCC(Nc2nc3cccnc3n2Cc2ccc(CC)o2)CC1 — lower, 111 °C
- CCCCCC1OCc2cc(C(N)=O)ccc2O1 (stereo not drawn) — higher, 162 to 163 °C
- CCCCCCCCCCCCCCCCCCCC1CN(C(=O)c2cc(OC)c(OC)c(OC)c2)CCN1C(=O)c1cc(OC)c(OC)c(OC)c1 (stereo not drawn) — lower, 76 °C
- Cc1ccc(S(=O)(=O)N2C3=NC(C)(C)N(C)C(=O)N3c3ccccc32)cc1 — not separable, 147 to 149 °C
- CCn1cccc1C(=O)O — lower, 77 to 78 °C
- C[C@@H](S[C@H]1CO[C@H](/C=C/c2cccnc2)OC1)[C@](O)(Cn1cncn1)c1ccc(F)cc1F — lower, 118 to 125 °C
- O=C1CCCN1c1cccc(-c2ccc(CC34CCCN3C(=O)N(c3cc(Cl)cc(Cl)c3)C4=O)cc2)c1 (stereo not drawn) — lower, 86.5 °C
- O=C(Nc1ccccc1O)C1CCc2nc[nH]c2C1 (stereo not drawn) — higher, 203 to 205 °C
- CCOC(=O)Cc1ccc2cc(O)ccc2c1 — lower, 81 to 83 °C
- COCOc1ccccc1-c1cc(-c2ccccc2C(=O)OC)c(C#N)c(NC(=O)c2cccs2)n1 — higher, 190 to 191 °C
- CCOC(=O)C(=O)N(O)Cc1ccc2c(c1)Cc1ccccc1-2 — lower, 130 to 131 °C
- O=C1N=C(N2CCCC2)SC1Cc1cccc(-c2ccc(O)c(C34CC5CC(CC(C5)C3)C4)c2)c1 (stereo not drawn) — higher, 153 to 154 °C
- CN1CCN(c2ccc3[nH]c(=O)oc(=O)c3c2)CC1 — higher, 285 °C
- C=C1CC(C)(COc2cc(=O)oc3ccccc23)OC1=O (stereo not drawn) — higher, 161 to 162 °C
- CCOCn1c(Cl)c(C#N)c(Cl)c1-c1ccc(Cl)c(Cl)c1 — lower, 106 to 109 °C
- CNc1nc2ccccc2cc1N — lower, 133 to 136 °C
- Cc1nc2[nH]c(=O)ccc2c(C)c1C — higher, 170 to 175 °C
- COc1cccc(COCCCn2ccnc2)c1NC(=O)CC1c2ccccc2Oc2ccccc21 — higher, 155 to 156 °C
- O=C(O)c1cn(-c2ccc(F)cc2F)c2c(F)c(N3Cc4cccc(Cl)c4C3)c(F)cc2c1=O — higher, 256 to 260 °C
- CC(C)CN(CC(C)C)c1ccc(NC(=O)N(C[C@H]2CC[C@H](CN(C(=O)Nc3ccc(N(CC(C)C)CC(C)C)cc3)C3CCCCC3)CC2)C2CCCCC2)cc1 — lower, 140 to 142 °C
- CNC(=O)c1cnn2c(C(=O)N3CCN(C(=O)OC(C)(C)C)CC3)c(Cc3cccc(F)c3C)c(-c3ccccc3)c2c1 — higher, 153 to 154 °C
- O[C@H]1CC[C@@H](CCN2CCC(=C3c4ccc(F)cc4Sc4ccc(C(F)(F)F)cc43)CC2)CC1 — not separable, 147 to 150 °C
- O=[N+]([O-])c1ccc(Cl)c(C2OCCO2)c1 — lower, 78 to 81 °C
- Cc1nc2cccc3n(CCCCCCNS(=O)(=O)CC(F)(F)F)c(=O)c1n23 — lower, 141 to 143 °C
- CC(C=CCOC(=O)c1ccc(C(N)=O)cc1)Oc1ccc(Oc2cnc3cc(Cl)ccc3n2)cc1 (stereo not drawn) — not separable, 144 to 148 °C
- Cc1cccc(C(=O)c2[nH]c3cc(Cl)ccc3c2CC(=O)O)c1 — higher, 182 to 184 °C
- COC(=O)C(C)(Oc1ccc(-c2ccc(Cl)cc2)cc1)C(F)(F)F (stereo not drawn) — lower, 87 to 88 °C
